The source of these data is ChEMBL document CHEMBL4622974, “Leveraging an Open Science Drug Discovery Model to Develop CNS-Penetrant ALK2 Inhibitors for the Treatment of Diffuse Intrinsic Pontine Glioma” (J Med Chem, 2020).

The target of one data set is T1, TGF-beta receptor type-1 (Homo sapiens, UniProt P36897).
T1 sequence (P36897 whole entry): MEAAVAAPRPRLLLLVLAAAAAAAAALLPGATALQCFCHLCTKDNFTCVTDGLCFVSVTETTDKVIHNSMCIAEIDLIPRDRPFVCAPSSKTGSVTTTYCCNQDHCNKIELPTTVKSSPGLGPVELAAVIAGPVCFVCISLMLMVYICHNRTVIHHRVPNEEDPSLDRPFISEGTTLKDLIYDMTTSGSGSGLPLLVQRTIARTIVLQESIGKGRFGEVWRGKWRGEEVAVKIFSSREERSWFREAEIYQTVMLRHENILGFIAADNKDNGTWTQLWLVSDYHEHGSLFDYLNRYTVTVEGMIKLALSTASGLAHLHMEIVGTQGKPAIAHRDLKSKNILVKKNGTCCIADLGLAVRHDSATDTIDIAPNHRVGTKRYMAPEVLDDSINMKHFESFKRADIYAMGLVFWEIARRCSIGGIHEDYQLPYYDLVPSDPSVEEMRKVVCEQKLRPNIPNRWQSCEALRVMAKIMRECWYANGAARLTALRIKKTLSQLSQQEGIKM
The experiment in a line: Inhibition of human ALK5 using casein as substrate in presence of [gamma-33P]-ATP by radiometric hotspot assay. Format: ADME.

The target in data set [1] is Voltage-gated inwardly rectifying potassium channel KCNH2 (Homo sapiens, UniProt Q12809). The experiment in a line: Inhibition of human ERG expressed in HEK293 cells after 5 mins by IonWorks barracuda patch clamp method. Format: cell-based.
Data set [2] addresses Activin receptor type-1-like (Homo sapiens, UniProt P37023). The experiment in a line: Inhibition of human ALK1 using casein as substrate in presence of [gamma-33P]-ATP by radiometric hotspot assay.
For data set [3], the target named is Bone morphogenetic protein receptor type-1B (Homo sapiens, UniProt O00238). The experiment in a line: Inhibition of human ALK6 using casein as substrate in presence of [gamma-33P]-ATP by radiometric hotspot assay.
Data set [4] deals with Serine/threonine-protein kinase SIK2 (Homo sapiens, UniProt Q9H0K1). The experiment in a line: Inhibition of SIK2 (unknown origin).
For data set [5], the target named is T2, Alpha-2A adrenergic receptor (Homo sapiens, UniProt P08913). The experiment in a line: Inhibition of recombinant human adrenergic alpha2A receptor at 10 uM incubated for 60 mins by scintillation counting method relative to control.
The target in data set [6] is Alpha-1A adrenergic receptor (Rattus norvegicus, UniProt P43140). The experiment in a line: Inhibition of rat adrenergic alpha1A receptor at 10 uM relative to control.
Another data set addresses Cannabinoid receptor 1 (Homo sapiens, UniProt P21554). The experiment in a line: Inhibition of recombinant human CB1 incubated for 60 mins by scintillation counting method.
The target in data set [7] is T2, Alpha-2A adrenergic receptor. The experiment in a line: Inhibition of recombinant human adrenergic alpha2A receptor incubated for 60 mins by scintillation counting method.
For a further data set, the target named is Cytochrome P450 2C9 (Homo sapiens, UniProt P11712). The experiment in a line: Inhibition of CYP2C9 in human liver microsomes using tolbutamide as substrate incubated for 20 mins in presence of NADPH by LC/MS/MS analysis. Format: ADME. A general note: Microsomes from liver hold many membrane-bound enzymes, among them those of drug oxidation.
Data set [8] is described as follows: Ratio of drug level in brain to plasma in CD-1 mouse at 10 mg/kg, po measured at 2 hrs. It is filed as ADME, organism-based. To be noted: brain and plasma, read-out: BPR.
Data set [9] can be described thus: Plasma concentration in NOD/SCID mouse at 25 mg/kg, po measured after 0.5 to 6 hrs. Format: ADME, organism-based. To be noted: in vivo.
Data set [10] can be described thus: Unbound drug level in CD-1 mouse brain at 1 mg/kg, iv measured at 2 hrs. Particulars: in vivo. Format: ADME, organism-based.
Data set [11] is described as follows: Drug level in CD-1 mouse brain at 1 mg/kg, iv measured at 2 hrs. Format: ADME, organism-based. To be noted: read-out: Drug uptake.
The nature of data set [12]: Protein binding in CD-1 mouse brain at 1 mg/kg, iv measured at 2 hrs. Particulars: read-out: PB (converted). Format: ADME, organism-based.
A short description of data set [13]: Unbound plasma concentration in CD-1 mouse […] at 1 mg/kg, iv measured at 2 hrs by LC/MS/MS method. Particulars: in vivo. Format: ADME, organism-based.
Data set [14] in a line: Plasma concentration in CD-1 mouse at 1 mg/kg, iv measured at 2 hrs by LC/MS/MS method. Format: ADME, organism-based.
Data set [15] in a line: Unbound brain-to-plasma concentration ratio in CD-1 mouse plasma at 1 mg/kg, iv measured at 2 hrs. Format: ADME, organism-based. To be noted: read-out: K(p,uu,brain).
A short description of data set [16]: Toxicity in C57BL/6 mouse assessed as mouse death at 25 mg/kg, po QD administered for 5 days measured after 24 hrs. Particulars: in vivo. Format: organism-based.
Data set [17] is described as follows: Toxicity in C57BL/6 mouse assessed as mouse death at 25 mg/kg, po BID administered for 5 days measured after 24 hrs. To be noted: in vivo. Format: organism-based.
Data set [18] can be described thus: Toxicity in C57BL/6 mouse assessed as mouse death at 50 mg/kg, po QD administered for 5 days measured after 24 hrs. Particulars: in vivo. It is filed as organism-based.
A short description of data set [19]: Toxicity in C57BL/6 mouse assessed as mouse death at 100 mg/kg, po QD administered for 5 days measured after 24 hrs. Format: organism-based. Particulars: in vivo.
Data set [20] can be described thus: Toxicity in C57BL/6 mouse assessed as body weight loss at 25 mg/kg, po QD administered for 5 days measured after 24 hrs relative to control. Format: organism-based. To be noted: in vivo.
A short description of data set [21]: Toxicity in C57BL/6 mouse assessed as body weight loss at 25 mg/kg, po BID administered for 5 days measured after 24 hrs relative to control. Format: organism-based. To be noted: in vivo.
Data set [22] in a line: Toxicity in C57BL/6 mouse assessed as gross pathology at 25 mg/kg, po QD administered for 5 days measured after 24 hrs relative to control. It is filed as organism-based. To be noted: in vivo.
The nature of data set [23]: Toxicity in C57BL/6 mouse assessed as gross pathology at 50 mg/kg, po QD administered for 5 days measured after 24 hrs relative to control. To be noted: in vivo. Format: organism-based.

T2 sequence (P08913 whole entry): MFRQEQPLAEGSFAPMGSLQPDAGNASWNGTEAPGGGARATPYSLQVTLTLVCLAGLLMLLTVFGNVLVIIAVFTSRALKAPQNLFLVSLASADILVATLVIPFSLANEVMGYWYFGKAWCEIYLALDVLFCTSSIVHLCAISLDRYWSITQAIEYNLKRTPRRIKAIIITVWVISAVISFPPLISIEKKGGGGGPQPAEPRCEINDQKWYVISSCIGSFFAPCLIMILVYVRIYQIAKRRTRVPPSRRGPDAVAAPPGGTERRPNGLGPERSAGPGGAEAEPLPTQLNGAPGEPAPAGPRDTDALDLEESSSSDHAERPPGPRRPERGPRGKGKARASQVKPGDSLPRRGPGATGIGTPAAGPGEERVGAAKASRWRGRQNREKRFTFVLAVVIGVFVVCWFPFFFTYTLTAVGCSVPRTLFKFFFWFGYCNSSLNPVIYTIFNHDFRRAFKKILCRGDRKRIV
Chain of Serine/threonine-protein kinase SIK2 (Q9H0K1 whole entry): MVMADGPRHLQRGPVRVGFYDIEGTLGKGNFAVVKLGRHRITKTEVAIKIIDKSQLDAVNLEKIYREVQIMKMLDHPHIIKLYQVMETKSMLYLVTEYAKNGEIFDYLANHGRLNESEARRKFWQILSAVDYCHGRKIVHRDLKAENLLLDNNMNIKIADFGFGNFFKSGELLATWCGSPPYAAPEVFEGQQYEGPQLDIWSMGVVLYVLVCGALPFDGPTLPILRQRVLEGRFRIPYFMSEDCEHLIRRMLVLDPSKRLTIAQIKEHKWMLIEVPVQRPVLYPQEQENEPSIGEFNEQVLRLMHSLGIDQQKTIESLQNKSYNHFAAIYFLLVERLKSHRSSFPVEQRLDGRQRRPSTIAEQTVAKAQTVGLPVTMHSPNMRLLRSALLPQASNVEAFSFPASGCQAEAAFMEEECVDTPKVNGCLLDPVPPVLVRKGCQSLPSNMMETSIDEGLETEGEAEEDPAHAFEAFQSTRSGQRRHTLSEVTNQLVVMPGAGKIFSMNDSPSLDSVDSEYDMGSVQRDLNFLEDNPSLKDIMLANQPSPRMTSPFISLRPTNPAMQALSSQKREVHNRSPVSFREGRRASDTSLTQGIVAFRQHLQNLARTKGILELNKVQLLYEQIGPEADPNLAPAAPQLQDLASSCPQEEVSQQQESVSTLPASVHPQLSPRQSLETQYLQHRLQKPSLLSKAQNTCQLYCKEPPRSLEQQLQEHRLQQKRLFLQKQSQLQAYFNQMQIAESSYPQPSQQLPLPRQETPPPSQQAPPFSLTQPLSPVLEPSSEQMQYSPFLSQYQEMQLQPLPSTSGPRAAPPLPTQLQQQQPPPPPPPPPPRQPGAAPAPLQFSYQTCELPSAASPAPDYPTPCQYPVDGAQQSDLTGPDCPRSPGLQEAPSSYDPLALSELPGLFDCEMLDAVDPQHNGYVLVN
Chain of Bone morphogenetic protein receptor type-1B (O00238 whole entry): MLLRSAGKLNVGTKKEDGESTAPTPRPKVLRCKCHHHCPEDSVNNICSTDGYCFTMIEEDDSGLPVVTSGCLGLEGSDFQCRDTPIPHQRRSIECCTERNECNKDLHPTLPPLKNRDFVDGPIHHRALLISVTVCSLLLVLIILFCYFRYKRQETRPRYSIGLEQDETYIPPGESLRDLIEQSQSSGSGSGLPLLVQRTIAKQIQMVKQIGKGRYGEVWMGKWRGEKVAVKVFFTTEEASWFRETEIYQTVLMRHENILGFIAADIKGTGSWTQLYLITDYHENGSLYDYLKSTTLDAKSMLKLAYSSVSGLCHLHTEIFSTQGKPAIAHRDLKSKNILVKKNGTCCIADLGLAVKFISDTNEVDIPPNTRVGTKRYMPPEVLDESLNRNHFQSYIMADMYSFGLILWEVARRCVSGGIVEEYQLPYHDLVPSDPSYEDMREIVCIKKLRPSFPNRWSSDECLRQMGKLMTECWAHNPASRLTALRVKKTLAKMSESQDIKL
Chain of Voltage-gated inwardly rectifying potassium channel KCNH2 (Q12809 whole entry): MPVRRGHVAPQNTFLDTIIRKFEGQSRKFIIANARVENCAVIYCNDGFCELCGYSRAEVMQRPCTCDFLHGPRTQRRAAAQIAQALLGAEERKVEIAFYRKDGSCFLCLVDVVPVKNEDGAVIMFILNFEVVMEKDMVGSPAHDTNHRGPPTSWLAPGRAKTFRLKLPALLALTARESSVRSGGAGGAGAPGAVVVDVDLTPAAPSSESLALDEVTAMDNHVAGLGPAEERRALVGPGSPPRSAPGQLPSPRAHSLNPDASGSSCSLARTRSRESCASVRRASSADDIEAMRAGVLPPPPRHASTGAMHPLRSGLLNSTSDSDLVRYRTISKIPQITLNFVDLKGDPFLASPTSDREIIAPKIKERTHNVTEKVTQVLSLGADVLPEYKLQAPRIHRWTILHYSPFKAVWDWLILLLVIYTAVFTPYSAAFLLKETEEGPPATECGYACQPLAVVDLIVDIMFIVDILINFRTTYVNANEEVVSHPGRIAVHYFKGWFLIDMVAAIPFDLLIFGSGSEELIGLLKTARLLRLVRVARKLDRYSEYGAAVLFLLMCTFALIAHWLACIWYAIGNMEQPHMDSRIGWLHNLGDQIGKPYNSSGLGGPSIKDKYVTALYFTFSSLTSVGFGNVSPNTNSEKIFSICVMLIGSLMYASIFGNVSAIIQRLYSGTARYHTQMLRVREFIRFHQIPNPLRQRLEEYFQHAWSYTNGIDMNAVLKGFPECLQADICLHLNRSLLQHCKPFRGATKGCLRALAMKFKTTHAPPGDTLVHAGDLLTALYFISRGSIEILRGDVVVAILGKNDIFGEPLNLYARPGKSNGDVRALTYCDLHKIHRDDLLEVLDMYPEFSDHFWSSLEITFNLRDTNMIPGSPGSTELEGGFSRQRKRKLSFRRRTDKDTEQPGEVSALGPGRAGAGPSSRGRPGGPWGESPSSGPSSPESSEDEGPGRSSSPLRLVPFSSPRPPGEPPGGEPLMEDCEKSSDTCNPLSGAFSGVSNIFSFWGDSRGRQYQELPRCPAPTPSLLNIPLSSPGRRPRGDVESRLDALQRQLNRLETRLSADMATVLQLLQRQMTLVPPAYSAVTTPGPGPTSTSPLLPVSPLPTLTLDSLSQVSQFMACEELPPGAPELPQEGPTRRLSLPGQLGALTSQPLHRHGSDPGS
Chain of Activin receptor type-1-like (P37023 whole entry): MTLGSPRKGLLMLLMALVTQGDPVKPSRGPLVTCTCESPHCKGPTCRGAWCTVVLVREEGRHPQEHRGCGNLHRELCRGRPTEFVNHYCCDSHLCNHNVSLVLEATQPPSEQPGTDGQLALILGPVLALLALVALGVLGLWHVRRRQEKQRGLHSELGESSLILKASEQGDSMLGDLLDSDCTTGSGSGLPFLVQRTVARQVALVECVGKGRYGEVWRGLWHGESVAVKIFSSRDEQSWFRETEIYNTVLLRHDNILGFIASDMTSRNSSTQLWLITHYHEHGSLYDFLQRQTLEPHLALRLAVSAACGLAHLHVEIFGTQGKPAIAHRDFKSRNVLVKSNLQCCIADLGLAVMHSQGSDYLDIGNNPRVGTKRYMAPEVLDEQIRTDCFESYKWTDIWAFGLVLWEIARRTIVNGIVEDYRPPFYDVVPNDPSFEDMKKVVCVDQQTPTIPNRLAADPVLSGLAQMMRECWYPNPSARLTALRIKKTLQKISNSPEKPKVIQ
Chain of Alpha-1A adrenergic receptor (P43140 whole entry): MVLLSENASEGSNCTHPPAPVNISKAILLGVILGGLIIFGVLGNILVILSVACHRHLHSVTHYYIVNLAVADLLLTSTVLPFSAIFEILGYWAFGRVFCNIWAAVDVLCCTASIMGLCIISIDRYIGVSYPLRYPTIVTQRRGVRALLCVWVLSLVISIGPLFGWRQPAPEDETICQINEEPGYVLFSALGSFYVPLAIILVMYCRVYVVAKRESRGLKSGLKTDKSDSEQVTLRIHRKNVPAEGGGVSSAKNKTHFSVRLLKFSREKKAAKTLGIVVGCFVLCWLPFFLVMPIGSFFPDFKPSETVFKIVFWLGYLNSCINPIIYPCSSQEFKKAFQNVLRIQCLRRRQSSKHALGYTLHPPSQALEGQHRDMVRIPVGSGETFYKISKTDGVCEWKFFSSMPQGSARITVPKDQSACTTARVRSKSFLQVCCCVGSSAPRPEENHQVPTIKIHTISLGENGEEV
Chain of Cannabinoid receptor 1 (P21554 whole entry): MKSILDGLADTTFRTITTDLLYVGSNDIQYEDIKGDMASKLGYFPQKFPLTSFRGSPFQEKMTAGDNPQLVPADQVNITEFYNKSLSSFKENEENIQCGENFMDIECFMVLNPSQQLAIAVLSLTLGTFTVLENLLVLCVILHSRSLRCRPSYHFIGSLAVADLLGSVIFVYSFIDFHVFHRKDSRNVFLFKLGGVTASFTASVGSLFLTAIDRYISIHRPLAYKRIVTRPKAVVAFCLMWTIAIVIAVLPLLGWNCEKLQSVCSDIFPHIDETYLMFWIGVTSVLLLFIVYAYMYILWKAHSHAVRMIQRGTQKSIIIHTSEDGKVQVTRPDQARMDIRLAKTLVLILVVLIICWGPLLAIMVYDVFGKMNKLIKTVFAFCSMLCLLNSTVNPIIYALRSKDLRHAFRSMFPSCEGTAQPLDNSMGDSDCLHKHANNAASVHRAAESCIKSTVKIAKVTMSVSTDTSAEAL
Chain of Cytochrome P450 2C9 (P11712 whole entry): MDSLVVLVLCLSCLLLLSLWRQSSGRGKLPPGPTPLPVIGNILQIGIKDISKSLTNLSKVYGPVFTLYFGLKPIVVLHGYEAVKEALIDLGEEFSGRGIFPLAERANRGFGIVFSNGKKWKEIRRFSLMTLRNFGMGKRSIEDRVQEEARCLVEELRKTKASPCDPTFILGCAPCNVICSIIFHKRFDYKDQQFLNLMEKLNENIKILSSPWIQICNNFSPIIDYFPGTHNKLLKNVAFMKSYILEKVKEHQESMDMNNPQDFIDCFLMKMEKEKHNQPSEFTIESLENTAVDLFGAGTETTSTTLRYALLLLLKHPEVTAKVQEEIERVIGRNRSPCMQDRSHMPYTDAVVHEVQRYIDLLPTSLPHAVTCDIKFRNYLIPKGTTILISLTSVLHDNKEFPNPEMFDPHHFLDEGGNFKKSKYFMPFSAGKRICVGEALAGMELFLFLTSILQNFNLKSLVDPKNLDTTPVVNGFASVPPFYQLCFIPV

In the case of `COc1cc(-c2cncc(-c3ccc(C4CCN(C)CC4)cc3)c2C)cc(OC)c1OC`, the IC50 (as a rule, the concentration needed to halve the response being measured) was > 5 µM on TGF-beta receptor type-1 and 4.8 µM in data set [1].

Regarding `COc1cc(-c2cncc(-c3ccc(N4CCNCC4)cc3)c2C)cc(OC)c1OC`, the IC50 was 0.015 µM in [2]; 0.068 µM in [3]; 0.336 to 0.924 µM in data set [4]; 1.72 µM at Cannabinoid receptor 1; 2.18 µM in data set [7]; > 30 µM on Cytochrome P450 2C9. Besides, in [5], the inhibition (as a rule, the share of the control response that was lost under treatment) at 1 h, 10 µM came out at 90%. The same compound gave an inhibition at 10 µM in [6] of 65%. In addition, the Kp at 2 h in data set [8] turned out to be 0.9. For the same compound, the concentration in [9] was found to be 7460 nM. The “Drug uptake(free)” value in data set [10] is 3.7 nM. The concentration at 2 h was 123 nM in data set [11] and 156 nM in [14]. The fraction unbound at 2 h in data set [12] was 0.03. For the same compound, in data set [13], the “Cp(f)” value is reported as 14 nM. Besides, the Kp uu at 2 h in data set [15] was found to be 0.3. The Activity entry in [16], in [17], in [18], in data set [19], in [20] and in data set [21] was “Non-Toxic” in each case. The Activity entry in [22] and in [23] was “Non-Toxic” each time.
